According to the supplement of paper PMC11208160:

Experiment: recombinant UMI read abundance after kanamycin selection (control-corrected) (log10(CPM+1)); higher = more efficient recombination; extreme values may be limits of the assay; sequences stand for … in AGTGCAGAGAAAATCGGCCAGTTTTCTCTGCCTGCAGTCCGCATGCCGTGGGACCCCTTGGGTTCTAACCTGTTGCCTAGATTTATGCAGCGGACTGCCTTTCTCCCAAAGTGATAAACCGG…AGGTTGGTTTCACT; site = the 11-nt donor
In short: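 In a pooled Escherichia coli screen for the IS621 bridge recombinase, donor and donor-binding-loop pairs were each placed with a 12-nt UMI on a plasmid bearing a promoterless kanamycin gene. This library was co-electroporated with a target plasmid encoding a fixed target and T7-inducible recombinase, and cells were plated either on IPTG (0.07 mM) plus kanamycin or without selection, in two replicates each. Recombinant UMIs were PCR-amplified across the donor–target junction and sequenced, and counts were converted to CPM, averaged over replicates, scaled by control-derived factors and reported as log10(CPM+1).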
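Note: IS621 bridge recombinase in Escherichia coli cells against a fixed T5 target plasmid.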

| Sequence | recombinant UMI read abundance (log10) |
| --- | --- |
| AAAGTATCATGGACCGGTTTTCCCGGTAATCCGTATTTGCT (site ACAGTATCTTG) | 0 |
| GGTACGTCATGGACCGGTTTTCCCGGTAATCCGTATTTGTA (site GGTACGTCTCA) | 0.00737 |
| CCATCGACATGGACCGGTTTTCCCGGTAATCCGTATTTGTT (site CGATCGACTAA) | 0 |
| TCCGCTGCATGGACCGGTTTTCCCGGTAATCCGTATTTGAA (site TCCGCTGCTTT) | 0 |
| AGCACGACATGGACCGGTTTTCCCGGTAATCCGTATTTGCA (site AGCACGACTTG) | 2.02 |
| GCTGCTTCATGGACCGGTTTTCCCGGTAATCCGTATTTGTA (site GCTGCTTCTTA) | 0.981 |
| TTAGGTACATGGACCGGTTTTCCCGGTAATCCGTATTTGAC (site CTAGGTACTGT) | 0 |
| TAATGAGCATGGACCGGTTTTCCCGGTAATCCGTATTTGGG (site AAATGAGCTCC) | 0.117 |
| CCGAAAGCATGGACCGGTTTTCCCGGTAATCCGTATTTGAT (site CCCAAAGCTAT) | 0 |
| CAAGTCCCATGGACCGGTTTTCCCGGTAATCCGTATTTGGG (site CAAGTCGCTCC) | 0.0161 |
| CCGGTACCATGGACCGGTTTTCCCGGTAATCCGTATTTGAG (site CCGGTACCTCT) | 0 |
| ACACCTCCATGGACCGGTTTTCCCGGTAATCCGTATTTGAC (site ACACGTCCTGT) | 0 |
| CAGATACCATGGACCGGTTTTCCCGGTAATCCGTATTTGGA (site CAGATACCTTC) | 0.0326 |
| CGATCATCATGGACCGGTTTTCCCGGTAATCCGTATTTGCT (site TGACCATCTAG) | 1.21 |
| TGCTTGGCATGGACCGGTTTTCCCGGTAATCCGTATTTGGT (site TGCTTGGCTAC) | 0.0115 |
| CTATCAACATGGACCGGTTTTCCCGGTAATCCGTATTTGCT (site CGATCATCTAG) | 0.00622 |
| CAAGCGCCATGGACCGGTTTTCCCGGTAATCCGTATTTGGG (site CAAGCGCCTCT) | 0.0195 |
| AGTAGTGCATGGACCGGTTTTCCCGGTAATCCGTATTTGGT (site ACTAGTGCTAC) | 0.699 |
| CACGGCTCATGGACCGGTTTTCCCGGTAATCCGTATTTGTT (site CACGGCACTAA) | 0.963 |

| Sequence | recombinant UMI read abundance (log10) |
| --- | --- |
| AGCTATACATGGACCGGTTTTCCCGGTAATCCGTATTTGAC (site AGCTATACTGT) | 2.03 |
| CGTTAGACATGGACCGGTTTTCCCGGTAATCCGTATTTGAG (site CGTGAGACTCT) | 0.0124 |
| CACTTCCCATGGACCGGTTTTCCCGGTAATCCGTATTTGCT (site CAGTTCCCTAG) | 0.521 |
| AGCAAAACATGGACCGGTTTTCCCGGTAATCCGTATTTGCA (site AGCAAAACTTG) | 0.735 |
| CGGGAGTCATGGACCGGTTTTCCCGGTAATCCGTATTTGCC (site CGGGAGTCTCG) | 1.51 |
| ACTAGTGCATGGACCGGTTTTCCCGGTAATCCGTATTTGTT (site ACTAGTGCTAA) | 1.35 |
| CCAGGTGCATGGACCGGTTTTCCCGGTAATCCGTATTTGAG (site CCAGGTGCTTT) | 0.424 |
| TCCTATTCATGGACCGGTTTTCCCGGTAATCCGTATTTGCC (site TCCCATTCTGG) | 0 |
| AATTATGCATGGACCGGTTTTCCCGGTAATCCGTATTTGGA (site GATTATGCTTC) | 0.983 |
| CAAATCCCATGGACCGGTTTTCCCGGTAATCCGTATTTGCT (site CAACTCCCTAG) | 0.00602 |
| TAGAATACATGGACCGGTTTTCCCGGTAATCCGTATTTGCA (site TAGAGTACTTG) | 0.446 |
| GCTAAAGCATGGACCGGTTTTCCCGGTAATCCGTATTTGAT (site GCTAAAGCTAT) | 1.92 |
| CTGCATACATGGACCGGTTTTCCCGGTAATCCGTATTTGTA (site CTGCATACTTA) | 1.59 |
| AGGGAGTCATGGACCGGTTTTCCCGGTAATCCGTATTTGCC (site TGGGAGTCTGG) | 0.994 |
| ACGCCTACATGGACCGGTTTTCCCGGTAATCCGTATTTGAG (site ACGCCTACTCT) | 0.69 |
| CGGTCGACATGGACCGGTTTTCCCGGTAATCCGTATTTGTT (site CGATCGACTAA) | 0.0167 |
| GCTACTGCATGGACCGGTTTTCCCGGTAATCCGTATTTGCC (site GCTTCTGCTGG) | 0.74 |
| CGGTGGACATGGACCGGTTTTCCCGGTAATCCGTATTTGTC (site CGGTGGACTGA) | 2.27 |
| TAATGAGCATGGACCGGTTTTCCCGGTAATCCGTATTTGCG (site TAATGAGCTCA) | 0.385 |

| Sequence | recombinant UMI read abundance (log10) |
| --- | --- |
| CCCATTTCATGGACCGGTTTTCCCGGTAATCCGTATTTGTC (site CCCATTTCTGA) | 0 |
| GGTCCAACATGGACCGGTTTTCCCGGTAATCCGTATTTGTA (site GGTTCAACTTA) | 0.0111 |
| CCCTCGCCATGGACCGGTTTTCCCGGTAATCCGTATTTGCC (site CCCTAGCCTGG) | 0 |
| CGGAATCCATGGACCGGTTTTCCCGGTAATCCGTATTTGTT (site CTGCATCCTAA) | 0.0146 |
| CTTCCTACATGGACCGGTTTTCCCGGTAATCCGTATTTGTA (site CTTCCTACTTA) | 0.451 |
| CGTTTGGCATGGACCGGTTTTCCCGGTAATCCGTATTTGCT (site AGTTTGGCTAG) | 0 |
| GGTACGCCATGGACCGGTTTTCCCGGTAATCCGTATTTGTT (site GGTACGGCTAA) | 0.0123 |
| TGATAGACATGGACCGGTTTTCCCGGTAATCCGTATTTGCC (site GGATAGACTGG) | 0 |
| GCCGTATCATGGACCGGTTTTCCCGGTAATCCGTATTTGCA (site ACAGTATCTTG) | 2.87 |
| ACATCTACATGGACCGGTTTTCCCGGTAATCCGTATTTGTG (site TCATCTACTCA) | 0.0183 |
| GGGGCACCATGGACCGGTTTTCCCGGTAATCCGTATTTGGA (site GGGGCACCTTC) | 0.0209 |
| CGTACATCATGGACCGGTTTTCCCGGTAATCCGTATTTGCT (site CGTACATCTAG) | 1.39 |
| GAATGCTCATGGACCGGTTTTCCCGGTAATCCGTATTTGAA (site GAATGCTCTTT) | 2.05 |
| TAGAGTCCATGGACCGGTTTTCCCGGTAATCCGTATTTGTA (site TAGAGTCCTTA) | 1.37 |
| ATGTATACATGGACCGGTTTTCCCGGTAATCCGTATTTGAC (site ATATATACTGT) | 2.59 |
| GGAGGACCATGGACCGGTTTTCCCGGTAATCCGTATTTGGG (site CGAGGACCTCC) | 0.0177 |
| CCAGCAGCATGGACCGGTTTTCCCGGTAATCCGTATTTGTC (site CCAGCAGCTGA) | 0.4 |
| GTGCGAGCATGGACCGGTTTTCCCGGTAATCCGTATTTGCA (site GTGCGAGCTTG) | 2.81 |
| CTCTAAACATGGACCGGTTTTCCCGGTAATCCGTATTTGCT (site CTCTACACTAG) | 0.676 |
